Measured values taken from patent publication US8933230B2, “Phosphorus-containing group-substituted quinoline, its preparation process, medical composition containing the compounds and application” (priority 2011, dated 2015).

Assays:
Assay in all cases: KinomeScan kinase panel
Assay type in all cases: binding
[1] = target: T1, ZAK (Homo sapiens, UniProt Q9NYL2)
T1 construct: purchased DiscoveRx Corporation (KinomeScan service)
Outline: (§1)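 Panel screen (KinomeScan, 442 kinases). One test concentration, 1000 nM; no dose-response.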

[2] = test system: FLT3(N841L)
Outline: as §1

[3] = target: T2, PRKCH (Homo sapiens, UniProt P24723)
T2 construct: purchased DiscoveRx Corporation (KinomeScan)
Outline: as §1

[4] = target: T3, ERK2 (Homo sapiens, UniProt P28482)
T3 construct: purchased DiscoveRx Corporation (KinomeScan)
Outline: as §1

[5] = target: T4, EPHB3 (Homo sapiens, UniProt P54753)
T4 construct: purchased DiscoveRx Corporation (KinomeScan)
Outline: as §1

[6] = target: T5, ERK3 (Homo sapiens, UniProt Q16659)
T5 construct: purchased DiscoveRx Corporation (KinomeScan)
Outline: as §1

[7] = target: T6, TLK1 (Homo sapiens, UniProt Q9UKI8)
T6 construct: purchased DiscoveRx Corporation (KinomeScan)
Outline: as §1

[8] = target: T7, PLK4 (Homo sapiens, UniProt O00444)
T7 construct: purchased DiscoveRx Corporation (KinomeScan)
Outline: as §1

[9] = target: T8, FLT3(R834Q) (Homo sapiens, UniProt P36888, R834Q)
T8 construct: purchased DiscoveRx Corporation (KinomeScan)
Outline: as §1

[10] = target: T9, PRKCE (Homo sapiens, UniProt Q02156)
T9 construct: purchased DiscoveRx Corporation (KinomeScan)
Outline: as §1

[11] = target: T10, ABL1(Q252H)-nonphosphorylated (Homo sapiens, UniProt P00519, Q252H)
T10 construct: purchased DiscoveRx Corporation (KinomeScan)
Outline: as §1

[12] = target: T11, YANK3 (Homo sapiens, UniProt Q86UX6)
T11 construct: purchased DiscoveRx Corporation (KinomeScan service)
Outline: as §1

[13] = target: T12, CSF1R (Homo sapiens, UniProt P07333)
T12 construct: purchased DiscoveRx Corporation (KinomeScan)
Outline: as §1

[14] = target: T13, EPHB2 (Homo sapiens, UniProt P29323)
T13 construct: purchased DiscoveRx Corporation (KinomeScan)
Outline: as §1

[15] = target: T14, HPK1 (Homo sapiens, UniProt Q92918)
T14 construct: purchased DiscoveRx Corporation (KinomeScan)
Outline: as §1

[16] = target: T15, CSNK1E (Homo sapiens, UniProt P49674)
T15 construct: purchased DiscoveRx Corporation (KinomeScan)
Outline: as §1

[17] = target: T16, FGFR (Homo sapiens, UniProt P21802)
T16 construct: purchased DiscoveRx Corporation (KinomeScan)
Outline: as §1

[18] = target: T17, CDKL5 (Homo sapiens, UniProt O76039)
T17 construct: purchased DiscoveRx Corporation (KinomeScan)
Outline: as §1

[19] = target: T18, SBK1 (Homo sapiens, UniProt Q52WX2)
T18 construct: purchased DiscoveRx Corporation (KinomeScan)
Outline: as §1

[20] = target: T19, FGR (Homo sapiens, UniProt P09769)
T19 construct: purchased DiscoveRx Corporation (KinomeScan)
Outline: as §1

[21] = target: T20, MRCKB (Homo sapiens, UniProt Q9Y5S2)
T20 construct: purchased DiscoveRx Corporation (KinomeScan)
Outline: as §1

[22] = target: T21, TSSK1B (Homo sapiens, UniProt Q9BXA7)
T21 construct: purchased DiscoveRx Corporation (KinomeScan)
Outline: as §1

[23] = target: T22, CDK4-cyclinD3 (Homo sapiens, UniProt P11802)
T22 construct: purchased DiscoveRx Corporation (KinomeScan)
Outline: as §1

[24] = target: T23, PIK3CA(E545K) (Homo sapiens, UniProt P42336, E545K)
T23 construct: purchased DiscoveRx Corporation (KinomeScan)
Outline: as §1

[25] = target: T24, P38-gamma (Homo sapiens, UniProt P53778)
T24 construct: purchased DiscoveRx Corporation (KinomeScan panel)
Outline: as §1

[26] = target: T25, CAMK1 (Homo sapiens, UniProt Q14012)
T25 construct: purchased DiscoveRx Corporation (KinomeScan)
Outline: as §1

[27] = target: T26, EPHA8 (Homo sapiens, UniProt P29322)
T26 construct: purchased DiscoveRx Corporation (KinomeScan)
Outline: as §1

[28] = target: T27, STK33 (Homo sapiens, UniProt Q9BYT3)
T27 construct: purchased DiscoveRx Corporation (KinomeScan)
Outline: as §1

[29] = target: T28, MST1R (Homo sapiens, UniProt Q04912)
T28 construct: purchased DiscoveRx Corporation (KinomeScan)
Outline: as §1

[30] = target: T29, CAMK2G (Homo sapiens, UniProt Q13555)
T29 construct: purchased DiscoveRx Corporation (KinomeScan)
Outline: as §1

[31] = target: T30, RSK4(Kin.Dom.2-C-terminal) (Homo sapiens, UniProt Q9UK32)
T30 construct: Kin.Dom.2; purchased DiscoveRx Corporation (KinomeScan)
Outline: as §1

[32] = target: T31, GSK3B (Homo sapiens, UniProt P49841)
T31 construct: purchased DiscoveRx Corporation (KinomeScan)
Outline: as §1

[33] = target: T32, NEK9 (Homo sapiens, UniProt Q8TD19)
T32 construct: purchased DiscoveRx Corporation (KinomeScan panel)
Outline: as §1

[34] = target: T33, MEK4 (Homo sapiens, UniProt P45985)
T33 construct: purchased DiscoveRx Corporation (KinomeScan)
Outline: as §1

[35] = target: T34, QSK (Homo sapiens, UniProt Q9Y2K2)
T34 construct: purchased DiscoveRx Corporation
Outline: as §1

[36] = target: T35, CAMK2D (Homo sapiens, UniProt Q13557)
T35 construct: purchased DiscoveRx Corporation (KinomeScan)
Outline: as §1

T25 sequence (Q14012 whole entry): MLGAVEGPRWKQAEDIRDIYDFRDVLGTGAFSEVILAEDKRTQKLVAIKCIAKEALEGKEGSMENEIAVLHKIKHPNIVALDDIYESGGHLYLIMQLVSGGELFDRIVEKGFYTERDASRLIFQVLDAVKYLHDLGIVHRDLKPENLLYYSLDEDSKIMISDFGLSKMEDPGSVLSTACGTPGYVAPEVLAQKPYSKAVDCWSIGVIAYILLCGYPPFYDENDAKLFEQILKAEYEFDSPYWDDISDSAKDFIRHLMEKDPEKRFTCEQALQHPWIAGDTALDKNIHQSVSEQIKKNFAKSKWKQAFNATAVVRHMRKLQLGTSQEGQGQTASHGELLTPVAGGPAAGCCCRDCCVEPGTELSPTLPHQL
T19 sequence (P09769 whole entry): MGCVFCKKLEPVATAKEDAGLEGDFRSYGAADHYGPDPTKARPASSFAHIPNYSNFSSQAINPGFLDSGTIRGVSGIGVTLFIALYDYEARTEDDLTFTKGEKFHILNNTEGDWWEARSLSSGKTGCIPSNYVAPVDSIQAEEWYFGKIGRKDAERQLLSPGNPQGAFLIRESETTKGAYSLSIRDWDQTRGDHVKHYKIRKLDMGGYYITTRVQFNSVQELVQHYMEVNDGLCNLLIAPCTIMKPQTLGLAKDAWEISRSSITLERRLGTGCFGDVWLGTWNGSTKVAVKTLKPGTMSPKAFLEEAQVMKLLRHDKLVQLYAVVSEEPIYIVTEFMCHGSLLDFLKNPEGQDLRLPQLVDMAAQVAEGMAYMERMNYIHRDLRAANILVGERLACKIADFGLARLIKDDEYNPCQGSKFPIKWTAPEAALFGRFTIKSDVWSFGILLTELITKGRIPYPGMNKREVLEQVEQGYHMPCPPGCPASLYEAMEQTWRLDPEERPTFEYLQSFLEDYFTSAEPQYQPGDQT
T5 sequence (Q16659 whole entry): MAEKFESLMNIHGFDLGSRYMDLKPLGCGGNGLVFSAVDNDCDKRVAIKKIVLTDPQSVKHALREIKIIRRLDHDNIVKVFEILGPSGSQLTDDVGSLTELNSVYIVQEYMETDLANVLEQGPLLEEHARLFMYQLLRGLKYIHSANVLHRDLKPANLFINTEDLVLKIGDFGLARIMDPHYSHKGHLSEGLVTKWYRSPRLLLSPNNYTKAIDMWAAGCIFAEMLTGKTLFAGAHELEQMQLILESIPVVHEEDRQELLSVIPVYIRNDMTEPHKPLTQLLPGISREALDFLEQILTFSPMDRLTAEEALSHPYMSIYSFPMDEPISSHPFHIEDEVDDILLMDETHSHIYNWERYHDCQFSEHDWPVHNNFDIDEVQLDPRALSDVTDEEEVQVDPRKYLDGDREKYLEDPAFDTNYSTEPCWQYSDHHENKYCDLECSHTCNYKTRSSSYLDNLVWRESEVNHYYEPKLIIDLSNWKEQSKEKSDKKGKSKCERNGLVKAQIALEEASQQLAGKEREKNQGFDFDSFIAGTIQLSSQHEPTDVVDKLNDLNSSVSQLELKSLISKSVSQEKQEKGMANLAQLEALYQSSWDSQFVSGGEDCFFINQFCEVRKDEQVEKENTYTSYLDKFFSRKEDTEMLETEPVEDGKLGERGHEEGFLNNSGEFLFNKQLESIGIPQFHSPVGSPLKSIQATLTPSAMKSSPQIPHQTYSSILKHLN
T6 sequence (Q9UKI8 whole entry): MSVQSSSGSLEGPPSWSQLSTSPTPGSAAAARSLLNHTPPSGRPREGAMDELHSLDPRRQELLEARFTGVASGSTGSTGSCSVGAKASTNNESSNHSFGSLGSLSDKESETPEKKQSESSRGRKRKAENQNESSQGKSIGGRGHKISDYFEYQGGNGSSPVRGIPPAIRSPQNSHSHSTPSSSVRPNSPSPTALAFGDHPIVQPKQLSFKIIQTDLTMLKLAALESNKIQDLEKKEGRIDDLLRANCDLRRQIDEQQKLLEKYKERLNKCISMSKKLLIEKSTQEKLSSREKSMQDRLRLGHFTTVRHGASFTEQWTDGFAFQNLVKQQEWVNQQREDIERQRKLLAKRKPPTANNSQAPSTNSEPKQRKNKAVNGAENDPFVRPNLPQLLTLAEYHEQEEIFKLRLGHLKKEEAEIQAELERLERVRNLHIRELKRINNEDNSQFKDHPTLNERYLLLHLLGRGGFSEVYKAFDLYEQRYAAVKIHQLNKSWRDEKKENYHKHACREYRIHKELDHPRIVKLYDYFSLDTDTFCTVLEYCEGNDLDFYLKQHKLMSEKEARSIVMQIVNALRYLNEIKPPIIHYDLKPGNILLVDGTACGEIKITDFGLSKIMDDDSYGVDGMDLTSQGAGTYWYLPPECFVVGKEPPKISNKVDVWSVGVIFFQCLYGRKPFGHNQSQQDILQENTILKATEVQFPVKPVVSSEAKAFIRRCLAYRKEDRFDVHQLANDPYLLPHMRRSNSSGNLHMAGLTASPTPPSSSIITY
T30 sequence (Q9UK32 426-683 limits assumed): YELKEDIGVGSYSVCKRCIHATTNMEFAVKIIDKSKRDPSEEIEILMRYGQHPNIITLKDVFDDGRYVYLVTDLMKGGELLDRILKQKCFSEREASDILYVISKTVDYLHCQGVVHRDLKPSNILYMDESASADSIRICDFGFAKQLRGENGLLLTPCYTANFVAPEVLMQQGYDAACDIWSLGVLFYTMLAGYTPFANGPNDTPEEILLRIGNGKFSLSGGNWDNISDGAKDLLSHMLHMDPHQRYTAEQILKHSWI
T33 sequence (P45985 whole entry): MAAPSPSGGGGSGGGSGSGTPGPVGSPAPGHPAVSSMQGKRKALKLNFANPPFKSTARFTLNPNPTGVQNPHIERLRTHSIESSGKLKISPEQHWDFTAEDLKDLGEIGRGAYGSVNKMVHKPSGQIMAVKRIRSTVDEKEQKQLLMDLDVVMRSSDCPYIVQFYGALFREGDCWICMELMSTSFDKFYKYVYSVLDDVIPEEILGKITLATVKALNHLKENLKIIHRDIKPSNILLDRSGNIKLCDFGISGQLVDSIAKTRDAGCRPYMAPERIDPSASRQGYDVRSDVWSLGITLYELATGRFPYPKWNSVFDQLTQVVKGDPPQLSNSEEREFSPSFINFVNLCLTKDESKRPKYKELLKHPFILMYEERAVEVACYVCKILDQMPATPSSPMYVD
T2 sequence (P24723 whole entry): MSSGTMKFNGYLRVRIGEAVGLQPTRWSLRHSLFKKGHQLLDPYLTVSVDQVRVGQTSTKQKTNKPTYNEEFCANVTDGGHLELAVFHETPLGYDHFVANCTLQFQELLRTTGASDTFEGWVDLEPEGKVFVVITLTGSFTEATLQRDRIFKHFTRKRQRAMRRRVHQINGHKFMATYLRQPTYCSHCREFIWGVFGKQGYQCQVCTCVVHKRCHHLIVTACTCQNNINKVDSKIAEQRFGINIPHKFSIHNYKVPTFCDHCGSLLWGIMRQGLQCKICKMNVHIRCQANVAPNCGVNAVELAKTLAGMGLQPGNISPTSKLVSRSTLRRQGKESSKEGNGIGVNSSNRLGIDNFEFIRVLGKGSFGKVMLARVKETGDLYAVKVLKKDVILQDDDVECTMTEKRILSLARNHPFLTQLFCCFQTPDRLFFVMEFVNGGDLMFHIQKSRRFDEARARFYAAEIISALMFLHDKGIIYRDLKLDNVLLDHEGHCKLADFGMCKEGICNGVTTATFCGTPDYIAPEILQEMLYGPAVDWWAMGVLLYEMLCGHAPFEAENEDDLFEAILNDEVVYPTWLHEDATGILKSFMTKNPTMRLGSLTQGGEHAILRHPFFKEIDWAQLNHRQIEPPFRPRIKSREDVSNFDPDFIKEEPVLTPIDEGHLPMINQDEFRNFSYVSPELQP
T7 sequence (O00444 whole entry): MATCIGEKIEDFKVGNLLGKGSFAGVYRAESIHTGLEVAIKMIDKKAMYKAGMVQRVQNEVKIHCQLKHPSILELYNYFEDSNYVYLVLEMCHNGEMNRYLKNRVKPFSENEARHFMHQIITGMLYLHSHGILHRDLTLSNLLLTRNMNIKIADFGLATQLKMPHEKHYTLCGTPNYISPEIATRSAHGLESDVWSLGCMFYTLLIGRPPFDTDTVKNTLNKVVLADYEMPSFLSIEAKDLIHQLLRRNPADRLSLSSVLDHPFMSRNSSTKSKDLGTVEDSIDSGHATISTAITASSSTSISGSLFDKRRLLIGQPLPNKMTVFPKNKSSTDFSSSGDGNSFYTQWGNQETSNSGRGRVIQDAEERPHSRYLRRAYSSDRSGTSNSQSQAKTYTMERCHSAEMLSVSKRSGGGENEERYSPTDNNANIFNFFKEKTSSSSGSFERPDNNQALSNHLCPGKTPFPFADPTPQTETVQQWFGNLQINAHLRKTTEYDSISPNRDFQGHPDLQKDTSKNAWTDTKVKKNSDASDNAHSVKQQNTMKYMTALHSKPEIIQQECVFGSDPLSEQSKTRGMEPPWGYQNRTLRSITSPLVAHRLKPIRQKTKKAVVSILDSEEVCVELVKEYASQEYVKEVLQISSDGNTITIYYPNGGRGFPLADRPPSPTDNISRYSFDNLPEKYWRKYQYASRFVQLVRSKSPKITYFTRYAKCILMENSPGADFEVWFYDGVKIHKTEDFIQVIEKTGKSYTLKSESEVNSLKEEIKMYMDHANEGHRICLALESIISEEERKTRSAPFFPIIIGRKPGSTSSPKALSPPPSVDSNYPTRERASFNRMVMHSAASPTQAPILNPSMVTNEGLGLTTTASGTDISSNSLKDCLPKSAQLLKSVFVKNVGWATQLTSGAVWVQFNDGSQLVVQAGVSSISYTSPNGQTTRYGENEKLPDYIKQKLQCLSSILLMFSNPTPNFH
T16 sequence (P21802 458-770 limits assumed): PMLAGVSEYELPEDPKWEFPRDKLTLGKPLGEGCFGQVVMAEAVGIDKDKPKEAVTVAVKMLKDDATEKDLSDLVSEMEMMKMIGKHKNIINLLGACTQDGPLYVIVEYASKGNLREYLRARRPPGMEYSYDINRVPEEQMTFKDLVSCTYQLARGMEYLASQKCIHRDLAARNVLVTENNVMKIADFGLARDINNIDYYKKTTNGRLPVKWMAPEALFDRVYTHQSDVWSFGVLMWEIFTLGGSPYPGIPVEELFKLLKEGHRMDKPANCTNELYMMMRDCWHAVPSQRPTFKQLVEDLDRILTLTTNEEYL

With `CCOP(=O)(CN1CCC(COc2cc3nccc(Oc4ccc(NC(=O)C5(C(=O)Nc6ccc(F)cc6)CC5)cc4F)c3cc2OC)CC1)OCC` [Example 10, N1-[4-[[7-[[1-(diethoxyphosphorylmethyl)-4-piperidinyl]methoxyl]-6-methoxyl-4-quinolyl]oxyl]-3-fluorophenyl]-N1′-(4-fluorophenyl)cyclopropane-1,1-dicarboxamide] the “% Ctrl@1000 nM” value [1] was 36 % Ctrl, the “% Ctrl@1000 nM” value [2] was 0 % Ctrl and the “% Ctrl@1000 nM” value [3] was 100 % Ctrl. The “% Ctrl@1000 nM” value [4] was 100 % Ctrl, the “% Ctrl@1000 nM” value [5] was 36 % Ctrl and the “% Ctrl@1000 nM” value [6] was 100 % Ctrl. For the same compound, the “% Ctrl@1000 nM” value [7] was 88 % Ctrl, the “% Ctrl@1000 nM” value [8] was 7.4 % Ctrl and the “% Ctrl@1000 nM” value [9] was 16 % Ctrl. For the same compound, the “% Ctrl@1000 nM” value [10] was 100 % Ctrl, the “% Ctrl@1000 nM” value [11] was 2.4 % Ctrl and the “% Ctrl@1000 nM” value [12] was 100 % Ctrl. For the same compound, the “% Ctrl@1000 nM” value [13] was 0.25 % Ctrl, the “% Ctrl@1000 nM” value [14] was 2.8 % Ctrl and the “% Ctrl@1000 nM” value [15] was 40 % Ctrl. For the same compound, the “% Ctrl@1000 nM” value [16] was 100 % Ctrl, the “% Ctrl@1000 nM” value [17] was 76 % Ctrl and the “% Ctrl@1000 nM” value [18] was 100 % Ctrl. For the same compound, the “% Ctrl@1000 nM” value [19] was 100 % Ctrl, the “% Ctrl@1000 nM” value [20] was 35 % Ctrl and the “% Ctrl@1000 nM” value [21] was 100 % Ctrl. For the same compound, the “% Ctrl@1000 nM” value [22] was 100 % Ctrl, the “% Ctrl@1000 nM” value [23] was 100 % Ctrl and the “% Ctrl@1000 nM” value [24] was 100 % Ctrl. For the same compound, the “% Ctrl@1000 nM” value [25] was 100 % Ctrl, the “% Ctrl@1000 nM” value [26] was 78 % Ctrl and the “% Ctrl@1000 nM” value [27] was 0.15 % Ctrl. The “% Ctrl@1000 nM” value [28] was 46 % Ctrl, the “% Ctrl@1000 nM” value [29] was 4 % Ctrl and the “% Ctrl@1000 nM” value [30] was 100 % Ctrl. The “% Ctrl@1000 nM” value [31] was 91 % Ctrl, the “% Ctrl@1000 nM” value [32] was 100 % Ctrl and the “% Ctrl@1000 nM” value [33] was 66 % Ctrl. For the same compound, the “% Ctrl@1000 nM” value [34] was 100 % Ctrl, the “% Ctrl@1000 nM” value [35] was 100 % Ctrl and the “% Ctrl@1000 nM” value [36] was 94 % Ctrl.
